Test results published in patent US20130090315A1 (priority 2011, published 2013).

Key:
[1] = molecular target: T1, progesterone receptor (PR) (Homo sapiens, UniProt P06401); settings: cited from earlier work
T1 sequence (P06401 1-933): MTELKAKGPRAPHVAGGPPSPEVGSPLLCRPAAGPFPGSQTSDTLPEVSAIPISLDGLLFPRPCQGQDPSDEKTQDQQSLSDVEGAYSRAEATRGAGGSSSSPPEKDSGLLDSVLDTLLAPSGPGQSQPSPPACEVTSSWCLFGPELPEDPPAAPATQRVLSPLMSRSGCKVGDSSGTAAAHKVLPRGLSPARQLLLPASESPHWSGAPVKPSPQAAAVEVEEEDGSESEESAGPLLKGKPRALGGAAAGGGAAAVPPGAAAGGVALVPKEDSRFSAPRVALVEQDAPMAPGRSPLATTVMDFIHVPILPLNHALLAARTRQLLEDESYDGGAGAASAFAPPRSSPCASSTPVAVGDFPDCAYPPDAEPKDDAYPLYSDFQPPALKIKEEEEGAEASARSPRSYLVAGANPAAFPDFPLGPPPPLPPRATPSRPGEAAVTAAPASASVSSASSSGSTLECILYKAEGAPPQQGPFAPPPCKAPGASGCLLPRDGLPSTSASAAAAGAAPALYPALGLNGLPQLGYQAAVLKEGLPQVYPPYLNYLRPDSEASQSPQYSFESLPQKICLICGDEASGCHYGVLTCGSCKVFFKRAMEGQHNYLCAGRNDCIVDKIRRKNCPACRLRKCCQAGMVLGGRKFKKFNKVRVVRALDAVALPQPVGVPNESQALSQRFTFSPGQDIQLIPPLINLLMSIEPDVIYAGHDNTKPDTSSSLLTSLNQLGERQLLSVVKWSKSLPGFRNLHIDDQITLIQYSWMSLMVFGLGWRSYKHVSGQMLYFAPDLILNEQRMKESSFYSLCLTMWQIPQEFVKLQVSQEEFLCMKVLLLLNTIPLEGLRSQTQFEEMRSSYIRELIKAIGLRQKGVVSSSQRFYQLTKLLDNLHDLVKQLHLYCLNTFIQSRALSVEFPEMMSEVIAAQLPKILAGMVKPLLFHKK

[2] = test system: glutathione reductase; settings: 72 hours post-injury, compared to all other groups, FIG. 2, p<0.01; cited from earlier work
[3] = test system: rats suffering from TBI; settings: 16 mg/kg, 72 hours post-injury, FIG. 1, p<0.05; cited from earlier work
[4] = test system: rats following injury; settings: cited from earlier work
[5] = test system: rats that have suffered a concussion; experiment: Morris Water Maze latency to platform in mTBI (concussion) model; assay type: in vivo; settings: versus vehicle-injured rats, FIG. 8
[6] = test system: males; settings: in males; cited from earlier work
[7] = test system: moderate to severe TBI patients; settings: cited from earlier work

Structure (SMILES) | activation of PR-mediated transcription [1] | anti-oxidant activity of glutathione reductase [2] | brain water content (measure of edema) [3] | factors of cell death (caspase-3) and gliosis (GFAP) [4] | latency to platform, post-acute administration ([5]; 15 minutes post mTBI) | latency to platform, prophylactic administration ([5]; 15 minutes prior to mTBI) | conversion of testosterone to dihydrotestosterone [6] | size of reproductive organs [6] | spermatogenesis [6] | edema in both rodent sexes ([4]; both rodent sexes) | inflammatory factors (TNF-α and IL-β) [4] | Neurological Severity Score (motor and cognitive functioning) ([4]; rats) | 30 days post-injury outcomes (Glasgow Outcome Scale-Extended, Disability Rating Scale), moderate TBI ([7]; moderate TBI patients, 30 days post-injury) | reduction in mortality ([7]; moderate to severe TBI patients, 72 hours of continuous intravenous Prog) [%] | 30 days post-injury outcomes (Glasgow Outcome Scale-Extended, Disability Rating Scale), severe brain injuries ([7]; patients with severe brain injuries, 30 days post-injury) | neurological outcomes at six months ([7]; severe TBI patients, six months)
CC(=O)[C@@H]1CC[C@@H]2[C@H]3CCC4=CC(=O)CC[C@@]4(C)[C@@H]3CC[C@]21C [ent-Prog, ent-progesterone] | does not activate PR-mediated transcription | significantly increases the anti-oxidant activity of glutathione reductase | normalizes brain water content | – | – | – | – | – | – | – | – | – | – | – | – | –
CC(=O)[C@H]1CC[C@H]2[C@@H]3CC[C@H]4C[C@H](O)CC[C@]4(C)[C@H]3CC[C@]12C [ALLO, allopregnanolone] | – | – | normalizes brain water content | decreased of the presence of the factors of cell death (caspase-3) and gliosis (GFAP) | – | – | – | – | – | – | – | – | – | – | – | –
CC(=O)[C@H]1CC[C@H]2[C@@H]3CCC4=CC(=O)CC[C@]4(C)[C@H]3CC[C@]12C [Prog, progesterone] | – | – | normalizes brain water content | decreased of the presence of the factors of cell death (caspase-3) and gliosis (GFAP) | decreases latency to platform | decreases latency to platform | inhibits the conversion of testosterone to dihydrotestosterone | reduces the size of reproductive organs | suppresses spermatogenesis | effectively attenuates edema | inhibiting inflammatory factors (TNF-α and IL-β) | significant improvements | better outcomes | 50 | little measurable difference | better neurological outcomes long-term
